Laboratory results as given in patent US6747062B2, “Regulation of wound healing by nitric oxide” (New York Society for the Ruptured and Crippled Maintaining …, priority 1994, dated 2004).

How the values were obtained:
[1] = Body and muscle weight of rats fed the chemicals; assay type: in vivo, rat; settings: for increase of weight: over 22 days, same dose
Protocol: (§1) In the following NOS inhibition experiments, animals were fed the indicated chemicals at 1 mg/ml in their drinking water ad libitum for four days prior to surgical division of the right Achilles tendon and throughout the post-operative experimental period, with the exception of experiment (c)*, where the drugs were given from the immediate post-operative period:
(§2) (d) 3 weeks D-NAME (n=8), L-NAME (n=8), L-arginine (n=8), walking speed assessments at days 1,4,8,11,15,18,22, biomechanical assessment, muscle weight and autopsy at day 22.
All animals were weighed prior to surgery, at weekly intervals, and at sacrifice. After sacrifice the right triceps of rats fed D-NAME (n=8), L-NAME (n=8) or L-arginine (n=8) for three weeks was harvested, weighed for wet weight, lyophilized for dry weight and the water content calculated.

[2] = tested on: surgically divided Achilles tendon; experiment: Rat Achilles tendon healing model with nitric oxide synthase inhibition (morphology, biomechanics); assay type: in vivo; settings: for distance separating the cut ends of the healing tendon (5-8 mm): 1 mg/ml in drinking water
Protocol: (§3) Rat model system: The rat achilles tendon model is used to test model compounds for biological activity i.e. the ability to promote or inhibit wound healing in vivo. As described in Example 1 below, one Achilles tendon in each rat is transsected surgically, and allowed to heal for periods ranging from 6 hours to 14 days. At each time point, the degree of healing is first assessed by measuring walking speed. The animals are then sacrificed and the tendons are excised and subjected to biomechanical testing and morphological and immunochemical analysis. NOS activity is measured in the excised tendons as above. Finally, body and muscle weight are monitored, and systemic and local toxicity are assessed by macroscopic and microscopic post-mortem examination. It will be understood by a skilled practitioner that any small mammal suitable for testing may be used, including rats, mice, rabbits, guinea pigs, and the like.
as §1
(a) 1 week D-NAME (n=9) vs L-NAME (n=11); walking speed and biomechanical analyses at day 7. […]
The rats were housed in beta-chip-lined plastic cages, two animals per cage, with a 12-hour light, 12 hour dark cycle in an animal care facility and fed rat chow and water ad libitum. Anaesthesia was achieved by intraperitoneal injection of 80 mg/kg ketamine (Park Davis, Morris Plains, N.J.) and 5 mg/kg xylazine (Miles Inc, Shawnee Mission, Kans.). All surgical procedures were performed under sterile conditions with the aid of 2.5x microsurgical loops. The surgical procedure was similar to that previously outlined. A 3 cm midline incision was made over the right Achilles tendon and the Achilles tendon and plantaris were isolated from the surrounding fascia. The underlying fascia was disrupted by spreading with a pair of small straight scissors. The tendinous portion of the plantaris was removed and the Achilles tendon was divided cleanly in its mid-substance, 0.5 cm from its calcaneal insertion with a scalpel. The skin was then sutured with two simple nylon sutures of 5-0 ethilon monofilament nylon on a PC-1 cutting needle (Ethicon Inc, N.J.). No operation was performed on the left, uninjured, hind limb. No cast or dressings were applied and the animals were unrestricted during the healing phase. The animals were sacrificed by CO2 inhalation.
One hundred and fifty two harvested lower limbs were placed in phosphate buffered saline (PBS), frozen and stored at −70° C. for an average of seven days prior to testing. On the day prior to testing the specimens were thawed. All extraneous soft and hard tissues were removed by blunt and sharp dissection from the Achilles tendon, formerly intramuscular tendinous fibers and the hind foot. Area measurements of the uninjured and sham operated tendons were made with an area micrometer (Mitutoyo, Tokyo, Japan). Length measurements were made with a 0.02 mm calibrated caliper (Draper, Japan). The formerly intramuscular tendinous fibers were then secured between two strips of white labelling tape with Thick Gel Super Glue® (Super Glue Corporation, N.Y.) such that the distal edge of the tape was 1.0 cm from the calcaneal insertion. The calcaneus was fixed at 45° in an adjustable rubber-gripped clamp (Panavise, Sparks, Nev.). Throughout the procedure care was taken to ensure that neither the Super Glue® nor the self curing plastic contaminated the tendon proper and the specimens were kept moist by application of PBS. Mechanical testing was carried out using a MTS 810 material test system (MTS Systems Corporation, PN). Each specimen underwent a constant velocity ramp to failure test at 1 cm/sec (≈100%/sec). […]

[3] = Other systemic effects and post mortem examination; assay type: in vivo, rat; settings: for systemic changes (palsies, coat, dyspnoea, death, post mortem lesions): 3 weeks feeding
Protocol: as §3, §1, §2

[4] = Walking speed assessment in a confined walkway; assay type: in vivo, rat
Protocol: as §1
The animals were tested in a confined walkway with a dark shelter at the end. Each rat was held by its chest at the start of the walkway and then allowed to walk/run to the dark shelter at the end of the walkway. The time taken for the rat to cover the first half (21.5 cm) and the total length (43 cm) of the walkway was measured by individuals blinded to the treatment groups.

[5] = tested on: cultured bovine chondrocytes; experiment: NO2- release from cultured bovine chondrocytes (Greiss reaction); assay type: cell-based; settings: for release of NO2-: endotoxin at 1 μg/ml, no constitutive release
[6] = fed from the immediate post-operative period, day 15

With `N=C(N)NCCC[C@H](N)C(=O)O` [L-arginine] the “effect on muscle weight” value ([1]; day 22) was “no effect”, the increase of weight [1] was 30% and the “distance separating the cut ends of the healing tendon (5-8 mm)” value [2] was “did not change”. For the same compound, the “systemic changes (palsies, coat, dyspnoea, death, post mortem lesions)” value [3] was “failed to display any of the above changes”.
With `COC(=O)[C@@H](N)CCCNC(=N)N[N+](=O)[O-]` [L-NAME, Nw-nitro-L-arginine methyl ester] the “behavior and walking speed” value ([4]; after day 11) was “progressively quieter, slower”, the “systemic change: walking speed” value [4, 6] was “loss of walking speed” and the “behavior or walking speed” value ([4]; first week of treatment) was “no changes”. The “inhibition of endotoxin-induced NO2- production” value [5] was “completely inhibited”, the “body weight over the first 15 days of treatment” value ([1]; 1 mg/ml in drinking water) was “either failed to gain weight or lost weight” and the “lighter than initial preoperative weight” value ([1]; by day 22, p<0.001) was 30%. The “loss in dry muscle weight (right triceps)” value ([1]; day 22, p<0.01) was 40%, the “loss in wet muscle weight (right triceps)” value ([1]; day 22, p<0.01) was 30% and the “systemic change: weight” value [1, 6] was “weight loss”. For the same compound, the “distance separating the cut ends of the healing tendon (5-8 mm)” value [2] was “did not change”, the “microscopic appearance of the healing tissue (light microscopy)” value ([2]; L-NAME versus D-NAME fed rats) was “no subjective differences” and the “failure load of uninjured Achilles tendon constructs” value ([2]; day 7) was “unaffected”. The “inhibition of cross-sectional area of healing Achilles tendon” value (shortened to “inhibition … of healing Achilles tendon”) ([2]; day 7, given orally 1 mg/ml in drinking water from four days prior to surgery, p<0.01 vs D-NAME) was 30%, the “reduction in failure load on the formerly divided side” value ([2]; day 7, p<0.01) was 24% and the “inhibition … of healing Achilles tendon” value ([2]; day 15, given orally from four days prior to surgery, p<0.001) was 50%. The “inhibition … of healing Achilles tendon” value ([2]; day 22, given orally from four days prior to surgery, p<0.05) was 17%, the failure load [2, 6] was “failed to show any changes” and the tendon cross-sectional area [2, 6] was “failed to show any changes”. For the same compound, the “toe displacement, maximum displacement, stiffness, energy, modulus or maximum stress of surgically divided or uninjured Achilles constructs” value ([2]; rat, in vivo) was “did not affect”, the rats that died ([3]; day 21, group of eight rats) was “Two” and the “post mortem examination findings” value ([3]; day 22, all rats) was “scant body fat, empty small intestines, myocardial lesions consistent with infarction and granular kidneys”. For the same compound, the “rats that developed severe dyspnoea” value ([3]; from day 15) was “⅝”, the “coat and peri-orbital changes” value ([3]; from day 15, all rats) was “lost coat texture and developed peri-orbital rubor” and the “rats that developed motor palsies of upper or lower limbs” value ([3]; from day 15, group of eight rats) was “Four out of the eight”.
For IL-1β: inflammatory mediator, the “release of NO2-” value [5] was 100 nmol NO2^−/106 cells/24 hours.
In the case of TNF-α, the “release of NO2-” value [5] is reported as 100 nmol NO2^−/106 cells/24 hours.
For `O=C(O)CN(CCOCCOCCN(CC(=O)O)CC(=O)O)CC(=O)O` [EGTA], the “inhibition of endotoxin-induced NO2- production” value [5] was “not inhibited”.
With `COC(=O)[C@H](N)CCCN=C(N)N[N+](=O)[O-]` [D-NAME, Nw-nitro-D-arginine methyl ester] the increase of weight [1] was 30% and the “systemic changes (palsies, coat, dyspnoea, death, post mortem lesions)” value [3] was “failed to display any of the above changes”.
